{"source": "patent US3932664A", "about": "“Substituted phenoxyalkyl quaternary ammonium compounds as antiarrhythemic agents” (priority 1974, dated 1976)", "key": {"[1]": {"assay": "acute oral toxicity in mice", "details": "mouse, in vivo, single oral dose", "protocol": "(§1) An aqueous solution of [2-(4-amino-2,6-dibromophenoxy)ethyl]dimethyl (2-methylallyl)ammonium chloride is administered orally to several groups of male and female Sprague-Dawley derived rats and male and female Swiss mice (Cox strain). The compound is administered as single oral dosages in varying amounts, and the animals are held to assess toxicity twenty-four hours after administration of the compound."}, "[2]": {"assay": "blood and heart levels in rabbits after oral and intravenous administration", "format": "in vivo", "details": "rabbit"}, "[3]": {"assay": "acute oral toxicity in rats", "details": "rat, in vivo, single oral dose", "protocol": "as §1"}, "[4]": {"tested_on": "multifocal ventricular arrhythmias induced by n-hexane and epinephrine in dogs", "assay": "protection against multifocal ventricular arrhythmias induced by n-hexane and epinephrine in dogs", "format": "in vivo", "details": "dog, intravenous", "source_text": "[2-(4-Amino-2,6-dibromophenoxy)ethyl]dimethyl-(2-methylallyl)ammonium chloride is employed to alleviate multifocal ventricular arrhythmias induced by administration of n-hexane and epinephrine. In these operations, dogs are anesthetized by intravenous administration of 30 milligrams of pentobarbital sodium per kilogram. Transient ventricular arrhythmias are induced by a modification of the method of Garb and Chenowith, J. Pharmacol. Exp. Ther. 94; 12 (1948) in which the heart is sensitized by intratracheal injection of 0.04 milliliter of n-hexane per kilogram, followed in 15 seconds by rapid intravenous administration of 1-epinephrine bitrate at a dosage rate of 10 micrograms per kilogram. Such procedure produces a transient arrhythmia lasting about 10 seconds. Duration of protection by a test compound is evaluated by repeating the n-hexane and epinephrine challenge periodically and monitoring electrocardiogram and arterial blood pressure. […] When the same compound is administered at a dosage rate of 2 milligrams per kilogram, the duration of protection is found to be greater than 2 hours.\nIn similar operations, dosages of 5 to 10 milligrams per kilogram are found to be required to obtain similar antiarrhythmic effects when the known antiarrhythmic agent, quinidine sulfate, is employed as a test compound."}, "[5]": {"tested_on": "electrically induced ventricular fibrillation in dogs", "assay": "threshold for electrically induced ventricular fibrillation in electrically paced dogs", "format": "in vivo, dog", "details": "intravenous"}, "[6]": {"tested_on": "arrhythmia after experimental coronary artery occlusion in dogs", "assay": "abnormal complexes after experimental occlusion of the anterior descending coronary artery in dogs", "format": "in vivo", "details": "dog", "protocol": "An experimental occlusion of the anterior descending coronary artery is produced in dogs according to the method of Harris, Circulation 1, 1318 (1950). Following surgery the animals are given a penicillin-streptomycin preparation and allowed to recover for 18-24 hours. The animals are given 3 milligrams per kilogram of morphine sulfate as an analgetic and sedative to allow handling. Electrocardiograms are recorded both before and after administration of [2-([…])ethyl]dimethyl-(2-methylallyl)ammonium chloride to the test animals. The incidence of abnormal complexes (premature ventricular contractions and atrioventricular nodal beats) per minute is recorded as a percentage of total beats per minute. In one such operation the test compound is administered by intravenous infusion at rates of 1, 2, 2 and 2 milligrams per kilogram at intervals of 10 to 15 minutes. […] Following the last infusion of test compound the heartbeat rate is observed to have decreased from a rate of over 160 beats per minute prior to the first infusion to about 90-100 beats per minute. The incidence of ectopic beats at this time has decreased from a pre-treatment level of 100 percent abnormal beats per minute to below 60 percent, reaching zero (100 percent normal beats) within about 10 minutes after the last infusion. The lower heartbeat rate and low incidence of abnormal beats (generally 0 to 20 percent of the total beats per minute are abnormal) is found to persist for 2 hours following the last infusion of test compound, at which time the experiment is terminated.\nIn similar operations, the same test compound is infused at dosages of 1, 2 and 4 milligrams per kilogram at intervals over a forty minute period. Prior to infusion the incidence of abnormal beats is 100 percent. […] The incidence of abnormal beats is found to remain at zero with occasional brief periods of slight arrhythmia (2-5 percent abnormal beats) for 2.5 hours following the last dosage of the test compound, when recording is terminated.\nIn a similar operation the [2-([…])ethyl]dimethyl(2-methylallyl)ammonium chloride is administered orally in gelatin capsules. The test compound is administered in multiple dosages of 30, 30 and 50 milligrams per kilogram over a period of 150 minutes. […] Antiarrhythmic effects continue to be observed until the recording is terminated 140 minutes after the last dose of test compound."}, "[7]": {"details": "iv infusion, following the first infusion (1 mg/kg)"}}, "data": [{"smiles": "C=C(C)C[N+](C)(C)CCOc1c(Br)cc(N)cc1Br.[Cl-]", "note": "[Example 1, [2-(4-amino-2,6-dibromophenoxy)ethyl]-dimethyl(2-methylallyl)ammonium chloride]", "values": [{"measurement": "LD50 at 24 h", "setting": "[1]; female mice", "value": 550, "unit": "mg/kg"}, {"measurement": "LD50 at 24 h", "setting": "[1]; male mice", "value": 560, "unit": "mg/kg"}, {"measurement": "oral absorption", "setting": "[2]", "value": "indicate oral absorption"}, {"measurement": "LD50 at 24 h", "setting": "[3]; female rats", "value": 725, "unit": "mg/kg"}, {"measurement": "LD50 at 24 h", "setting": "[3]; male rats", "value": 758, "unit": "mg/kg"}, {"measurement": "duration of protection", "setting": "[4]; 2 mg/kg", "value": "greater than 2 hours"}, {"measurement": "duration of antiarrhythmic effect", "setting": "[4]; one mg/kg", "value": "about 1 hour"}, {"measurement": "protection against the arrhythmias", "setting": "[4]; one mg/kg", "value": "excellent protection"}, {"measurement": "increase in threshold for electrically induced ventricular fibrillation", "setting": "[5]", "value": "substantial increases"}, {"measurement": "time after last infusion to substantially complete conversion to sinus rhythm", "setting": "[6]; infused 1, 2 and 4 mg/kg over forty minutes", "value": "eight"}, {"measurement": "conversion to sinus rhythm", "setting": "[6]; infused 1, 2 and 4 mg/kg over forty minutes, incidence of abnormal beats 100 percent before", "value": "substantially complete conversion to sinus rhythm"}, {"measurement": "time for which incidence of abnormal beats remains at zero (with occasional slight arrhythmia)", "setting": "[6]; infused 1, 2 and 4 mg/kg, following last dosage, recording then terminated", "value": "≥ 2.5", "unit": "h"}, {"measurement": "incidence of abnormal beats", "setting": "[6]; infused 1, 2 and 4 mg/kg, for 2.5 hours following the last dosage", "value": "zero"}, {"measurement": "anti-arrhythmic effects on resumption of recording", "setting": "[6]; infused 1, 2 and 4 mg/kg, recording resumed 215 minutes later", "value": "significant anti-arrhythmic effects are still exhibited"}, {"measurement": "abnormal beats during occasional brief periods of slight arrhythmia", "setting": "[6]; infused 1, 2 and 4 mg/kg, within 2.5 hours following the last dosage", "value": "2-5%"}, {"measurement": "time after last infusion to zero ectopic beats (100 percent normal beats)", "setting": "[6]; iv 1, 2, 2 and 2 mg/kg", "value": "≤ 10", "unit": "min"}, {"measurement": "persistence of lower heartbeat rate and low incidence of abnormal beats", "setting": "[6]; iv 1, 2, 2 and 2 mg/kg, following last infusion, experiment terminated at that time", "value": "≥ 2", "unit": "h"}, {"measurement": "heartbeat rate", "setting": "[6]; iv 1, 2, 2 and 2 mg/kg, following last infusion, over 160 beats per minute prior to first infusion, in beats/min", "value": "90-100"}, {"measurement": "incidence of ectopic beats (percent abnormal beats per minute)", "setting": "[6]; iv 1, 2, 2 and 2 mg/kg, following last infusion, pre-treatment 100 percent", "value": "below 60%"}, {"measurement": "incidence of ectopic beats", "setting": "[6]; iv 1, 2, 2 and 2 mg/kg, within about 10 minutes after the last infusion", "value": "zero"}, {"measurement": "change in percentage of abnormal beats per minute", "setting": "[6]; [7]", "value": "concomitant decrease"}, {"measurement": "heart beat rate change", "setting": "[6]; [7]", "value": "marked decrease"}, {"measurement": "antiarrhythmic effects of the second and third doses", "setting": "[6]; oral 30, 30 and 50 mg/kg", "value": "further and more consistent antiarrhythmic effects"}, {"measurement": "time after last dose to periods with less than 10 percent abnormal beats", "setting": "[6]; oral 30, 30 and 50 mg/kg", "value": "about 25 minutes"}, {"measurement": "abnormal beats (periods in electrocardiogram)", "setting": "[6]; oral 30, 30 and 50 mg/kg, beginning about 25 minutes after last dose, interspersed with occasional arrhythmia", "value": "less than 10%"}, {"measurement": "time after last dose over which antiarrhythmic effects continue to be observed", "setting": "[6]; oral 30, 30 and 50 mg/kg, recording then terminated", "value": "≥ 140", "unit": "min"}, {"measurement": "time after first dosage to periods of reduced frequency of abnormal heart beats", "setting": "[6]; oral gelatin capsules, 30, 30 and 50 mg/kg over 150 minutes", "value": 10, "unit": "min"}]}]}
